Reference: ChEMBL document CHEMBL4630902 (2021)

Legend:
[1] = target: 5-hydroxytryptamine receptor 7 (Homo sapiens) (UniProt P34969); conditions: Compound concentration 10.0 uM
[2] = target: 5-hydroxytryptamine receptor 1A (Homo sapiens) (UniProt P08908); conditions: Compound concentration 10.0 uM
[3] = target: D(1A) dopamine receptor (Homo sapiens) (UniProt P21728); conditions: Compound concentration 10.0 uM
[4] = target: Sigma intracellular receptor 2 (Homo sapiens) (UniProt Q5BJF2); conditions: Compound concentration 10.0 uM
Sigma intracellular receptor 2 (Homo sapiens), sequence (Q5BJF2 whole entry): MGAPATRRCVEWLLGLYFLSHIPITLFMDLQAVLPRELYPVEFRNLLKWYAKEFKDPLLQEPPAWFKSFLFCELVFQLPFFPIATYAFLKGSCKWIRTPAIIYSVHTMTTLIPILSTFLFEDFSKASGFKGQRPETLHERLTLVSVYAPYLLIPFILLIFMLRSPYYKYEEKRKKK

[5] = target: Delta-type opioid receptor (Homo sapiens) (UniProt P41143); conditions: Compound concentration 10.0 uM
[6] = target: Histamine H3 receptor (Homo sapiens) (UniProt Q9Y5N1); conditions: Compound concentration 10.0 uM
[7] = target: Beta-2 adrenergic receptor (Homo sapiens) (UniProt P07550); conditions: Compound concentration 10.0 uM
Beta-2 adrenergic receptor (Homo sapiens), sequence (P07550 whole entry, looked up): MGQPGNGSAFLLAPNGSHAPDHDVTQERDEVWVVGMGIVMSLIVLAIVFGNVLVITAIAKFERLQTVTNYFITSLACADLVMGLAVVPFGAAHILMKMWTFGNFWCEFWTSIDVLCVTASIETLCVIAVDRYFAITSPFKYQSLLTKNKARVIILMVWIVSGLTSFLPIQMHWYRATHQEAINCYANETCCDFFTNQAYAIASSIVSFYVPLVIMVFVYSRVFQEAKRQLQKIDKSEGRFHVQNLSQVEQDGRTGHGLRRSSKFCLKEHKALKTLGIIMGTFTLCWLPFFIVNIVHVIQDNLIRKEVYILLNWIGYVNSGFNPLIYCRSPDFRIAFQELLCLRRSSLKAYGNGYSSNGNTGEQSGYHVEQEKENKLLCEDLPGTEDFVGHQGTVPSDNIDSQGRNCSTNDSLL

[8] = target: Muscarinic acetylcholine receptor M5 (Homo sapiens) (UniProt P08912); conditions: Compound concentration 10.0 uM
Muscarinic acetylcholine receptor M5 (Homo sapiens), sequence (P08912 whole entry): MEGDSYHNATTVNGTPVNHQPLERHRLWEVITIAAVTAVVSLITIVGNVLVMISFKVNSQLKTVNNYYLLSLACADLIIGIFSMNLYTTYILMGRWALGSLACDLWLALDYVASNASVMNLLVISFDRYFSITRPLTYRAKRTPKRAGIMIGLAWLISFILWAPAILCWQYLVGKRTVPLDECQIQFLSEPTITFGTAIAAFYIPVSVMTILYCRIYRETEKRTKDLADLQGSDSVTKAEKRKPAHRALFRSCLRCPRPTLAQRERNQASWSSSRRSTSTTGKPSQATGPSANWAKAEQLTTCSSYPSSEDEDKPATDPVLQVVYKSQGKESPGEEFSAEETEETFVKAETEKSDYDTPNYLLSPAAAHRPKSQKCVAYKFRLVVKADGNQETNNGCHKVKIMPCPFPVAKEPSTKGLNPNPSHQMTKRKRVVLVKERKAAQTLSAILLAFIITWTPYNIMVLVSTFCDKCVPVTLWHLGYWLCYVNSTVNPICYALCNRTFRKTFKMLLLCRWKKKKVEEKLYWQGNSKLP

[9] = target: Mu-type opioid receptor (Homo sapiens) (UniProt P35372); conditions: Compound concentration 10.0 uM
[10] = target: 5-hydroxytryptamine receptor 2B (Homo sapiens) (UniProt P41595); conditions: Compound concentration 10.0 uM
[11] = species: Rattus norvegicus; conditions: Compound concentration 10.0 uM
[12] = target: 5-hydroxytryptamine receptor 1B (Homo sapiens) (UniProt P28222); conditions: Compound concentration 10.0 uM
5-hydroxytryptamine receptor 1B (Homo sapiens), sequence (P28222 whole entry): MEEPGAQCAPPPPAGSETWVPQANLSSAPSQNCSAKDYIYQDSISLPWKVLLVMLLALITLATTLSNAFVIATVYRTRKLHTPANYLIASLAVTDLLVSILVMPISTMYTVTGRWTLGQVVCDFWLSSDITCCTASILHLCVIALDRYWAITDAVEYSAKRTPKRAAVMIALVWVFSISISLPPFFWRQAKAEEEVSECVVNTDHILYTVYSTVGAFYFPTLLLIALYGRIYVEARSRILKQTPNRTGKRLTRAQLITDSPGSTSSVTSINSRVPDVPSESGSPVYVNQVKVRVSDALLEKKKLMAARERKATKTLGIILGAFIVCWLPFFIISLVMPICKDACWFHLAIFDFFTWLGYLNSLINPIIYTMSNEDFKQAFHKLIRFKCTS

[13] = target: Beta-1 adrenergic receptor (Homo sapiens) (UniProt P08588); conditions: Compound concentration 10.0 uM
Beta-1 adrenergic receptor (Homo sapiens), sequence (P08588 whole entry, looked up): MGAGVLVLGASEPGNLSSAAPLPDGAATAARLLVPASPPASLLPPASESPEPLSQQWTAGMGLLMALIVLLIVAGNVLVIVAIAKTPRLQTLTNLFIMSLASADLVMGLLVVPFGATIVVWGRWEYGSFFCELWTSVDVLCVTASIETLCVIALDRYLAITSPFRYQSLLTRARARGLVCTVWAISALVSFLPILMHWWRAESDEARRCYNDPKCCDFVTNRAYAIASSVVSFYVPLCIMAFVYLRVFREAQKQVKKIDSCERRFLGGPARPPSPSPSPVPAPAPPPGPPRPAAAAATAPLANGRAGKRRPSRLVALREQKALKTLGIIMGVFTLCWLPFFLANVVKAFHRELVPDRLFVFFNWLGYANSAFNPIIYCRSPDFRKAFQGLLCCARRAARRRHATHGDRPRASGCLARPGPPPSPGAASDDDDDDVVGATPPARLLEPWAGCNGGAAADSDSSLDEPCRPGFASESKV

[14] = target: Alpha-1D adrenergic receptor (Homo sapiens) (UniProt P25100); conditions: Compound concentration 10.0 uM
Alpha-1D adrenergic receptor (Homo sapiens), sequence (P25100 whole entry): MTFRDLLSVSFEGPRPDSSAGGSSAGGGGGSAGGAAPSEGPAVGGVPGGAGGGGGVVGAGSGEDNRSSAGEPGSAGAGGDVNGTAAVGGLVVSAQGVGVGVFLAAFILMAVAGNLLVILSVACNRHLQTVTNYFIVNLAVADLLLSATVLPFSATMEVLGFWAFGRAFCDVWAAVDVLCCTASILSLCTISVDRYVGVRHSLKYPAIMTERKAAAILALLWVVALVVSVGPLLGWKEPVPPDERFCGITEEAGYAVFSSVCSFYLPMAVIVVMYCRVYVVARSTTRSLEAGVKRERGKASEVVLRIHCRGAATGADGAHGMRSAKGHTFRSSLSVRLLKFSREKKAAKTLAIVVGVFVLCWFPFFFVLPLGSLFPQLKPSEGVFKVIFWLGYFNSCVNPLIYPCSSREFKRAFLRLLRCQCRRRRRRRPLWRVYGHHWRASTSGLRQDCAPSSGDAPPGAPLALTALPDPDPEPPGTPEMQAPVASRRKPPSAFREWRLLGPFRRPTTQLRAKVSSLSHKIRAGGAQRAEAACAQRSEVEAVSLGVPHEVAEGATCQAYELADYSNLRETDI

[15] = target: Alpha-2C adrenergic receptor (Homo sapiens) (UniProt P18825); conditions: Compound concentration 10.0 uM
[16] = target: Alpha-2A adrenergic receptor (Homo sapiens) (UniProt P08913); conditions: Compound concentration 10.0 uM
[17] = target: 5-hydroxytryptamine receptor 2A (Homo sapiens) (UniProt P28223); conditions: Compound concentration 10.0 uM
[18] = target: Sodium-dependent serotonin transporter (Homo sapiens) (UniProt P31645); conditions: Compound concentration 10.0 uM
[19] = target: 5-hydroxytryptamine receptor 6 (Homo sapiens) (UniProt P50406); conditions: Compound concentration 10.0 uM
[20] = target: Muscarinic acetylcholine receptor M4 (Homo sapiens) (UniProt P08173); conditions: Compound concentration 10.0 uM
[21] = target: Histamine H4 receptor (Homo sapiens) (UniProt Q9H3N8); conditions: Compound concentration 10.0 uM
[22] = target: Muscarinic acetylcholine receptor M2 (Homo sapiens) (UniProt P08172); conditions: Compound concentration 10.0 uM
Muscarinic acetylcholine receptor M2 (Homo sapiens), sequence (P08172 whole entry): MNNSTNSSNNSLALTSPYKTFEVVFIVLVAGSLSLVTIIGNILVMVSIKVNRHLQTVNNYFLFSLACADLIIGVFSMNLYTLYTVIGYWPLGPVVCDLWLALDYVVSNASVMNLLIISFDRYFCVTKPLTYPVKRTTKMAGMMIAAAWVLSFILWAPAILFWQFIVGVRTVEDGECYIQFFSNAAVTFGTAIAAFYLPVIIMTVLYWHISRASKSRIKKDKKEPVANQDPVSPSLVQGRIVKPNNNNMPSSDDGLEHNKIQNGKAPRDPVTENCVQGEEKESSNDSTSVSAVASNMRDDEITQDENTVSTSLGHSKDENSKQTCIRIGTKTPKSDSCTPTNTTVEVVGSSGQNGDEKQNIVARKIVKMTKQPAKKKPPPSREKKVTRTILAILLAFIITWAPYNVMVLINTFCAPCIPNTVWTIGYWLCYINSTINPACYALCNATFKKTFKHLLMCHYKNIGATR

[23] = target: Alpha-1B adrenergic receptor (Homo sapiens) (UniProt P35368); conditions: Compound concentration 10.0 uM
[24] = target: D(1B) dopamine receptor (Homo sapiens) (UniProt P21918); conditions: Compound concentration 10.0 uM
D(1B) dopamine receptor (Homo sapiens), sequence (P21918 whole entry): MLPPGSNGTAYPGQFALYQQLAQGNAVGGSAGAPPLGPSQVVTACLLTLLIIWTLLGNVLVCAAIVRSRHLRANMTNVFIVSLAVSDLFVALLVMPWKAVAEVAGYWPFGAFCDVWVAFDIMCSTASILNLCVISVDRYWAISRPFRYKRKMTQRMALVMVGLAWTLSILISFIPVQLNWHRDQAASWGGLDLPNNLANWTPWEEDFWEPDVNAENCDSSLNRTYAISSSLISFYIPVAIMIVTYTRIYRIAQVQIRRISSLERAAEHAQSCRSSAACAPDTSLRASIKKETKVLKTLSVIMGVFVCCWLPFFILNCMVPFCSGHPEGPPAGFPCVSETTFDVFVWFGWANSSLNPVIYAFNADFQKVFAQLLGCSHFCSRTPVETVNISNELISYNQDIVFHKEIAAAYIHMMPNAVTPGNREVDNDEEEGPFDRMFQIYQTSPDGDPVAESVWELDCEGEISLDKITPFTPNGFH

[25] = target: Alpha-2B adrenergic receptor (Homo sapiens) (UniProt P18089); conditions: Compound concentration 10.0 uM
Alpha-2B adrenergic receptor (Homo sapiens), sequence (P18089 whole entry): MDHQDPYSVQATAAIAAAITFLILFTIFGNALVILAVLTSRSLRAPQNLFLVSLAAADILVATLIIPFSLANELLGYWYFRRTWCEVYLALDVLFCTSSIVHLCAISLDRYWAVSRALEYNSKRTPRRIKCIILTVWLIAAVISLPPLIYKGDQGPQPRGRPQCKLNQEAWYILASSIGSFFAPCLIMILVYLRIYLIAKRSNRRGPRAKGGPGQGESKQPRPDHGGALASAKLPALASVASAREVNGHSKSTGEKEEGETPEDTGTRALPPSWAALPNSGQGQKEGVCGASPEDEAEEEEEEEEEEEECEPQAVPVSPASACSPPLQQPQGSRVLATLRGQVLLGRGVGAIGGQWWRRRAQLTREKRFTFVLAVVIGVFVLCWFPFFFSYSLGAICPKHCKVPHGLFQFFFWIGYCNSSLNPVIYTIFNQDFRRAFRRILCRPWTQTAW

[26] = target: Muscarinic acetylcholine receptor M3 (Homo sapiens) (UniProt P20309); conditions: Compound concentration 10.0 uM
[27] = target: Kappa-type opioid receptor (Homo sapiens) (UniProt P41145); conditions: Compound concentration 10.0 uM
[28] = target: Sigma non-opioid intracellular receptor 1 (Homo sapiens) (UniProt Q99720); conditions: Compound concentration 10.0 uM
[29] = target: Alpha-1A adrenergic receptor (Homo sapiens) (UniProt P35348); conditions: Compound concentration 10.0 uM
Alpha-1A adrenergic receptor (Homo sapiens), sequence (P35348 whole entry): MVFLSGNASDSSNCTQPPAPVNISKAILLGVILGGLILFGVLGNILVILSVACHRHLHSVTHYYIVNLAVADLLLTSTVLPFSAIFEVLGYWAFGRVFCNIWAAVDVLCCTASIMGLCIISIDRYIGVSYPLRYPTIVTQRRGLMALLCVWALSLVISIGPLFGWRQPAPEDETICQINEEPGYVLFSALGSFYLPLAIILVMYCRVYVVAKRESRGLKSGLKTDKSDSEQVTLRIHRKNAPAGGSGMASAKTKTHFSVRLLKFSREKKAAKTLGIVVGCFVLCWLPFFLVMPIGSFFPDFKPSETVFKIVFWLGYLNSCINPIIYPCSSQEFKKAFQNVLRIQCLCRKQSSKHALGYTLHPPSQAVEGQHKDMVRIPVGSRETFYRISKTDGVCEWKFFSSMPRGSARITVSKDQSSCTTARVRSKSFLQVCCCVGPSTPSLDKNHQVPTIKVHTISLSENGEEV

[30] = target: T1, GABA-A receptor; anion channel (Rattus norvegicus) (UniProt O09028+P15431+P18506+P18508+P19969+P20236+P23574+P23576+P28471+P28473+P30191+P62813+P63079+P63138+Q91ZM7+Q9ES14); conditions: Compound concentration 10.0 uM
[31] = target: T1, GABA-A receptor; anion channel (Rattus norvegicus); conditions: Compound concentration 10.0 uM; remark: listed apart in the source
[32] = target: 5-hydroxytryptamine receptor 2C (Homo sapiens) (UniProt P28335); conditions: Compound concentration 10.0 uM
[33] = target: D(4) dopamine receptor (Homo sapiens) (UniProt P21917); conditions: Compound concentration 10.0 uM
D(4) dopamine receptor (Homo sapiens), sequence (P21917 whole entry): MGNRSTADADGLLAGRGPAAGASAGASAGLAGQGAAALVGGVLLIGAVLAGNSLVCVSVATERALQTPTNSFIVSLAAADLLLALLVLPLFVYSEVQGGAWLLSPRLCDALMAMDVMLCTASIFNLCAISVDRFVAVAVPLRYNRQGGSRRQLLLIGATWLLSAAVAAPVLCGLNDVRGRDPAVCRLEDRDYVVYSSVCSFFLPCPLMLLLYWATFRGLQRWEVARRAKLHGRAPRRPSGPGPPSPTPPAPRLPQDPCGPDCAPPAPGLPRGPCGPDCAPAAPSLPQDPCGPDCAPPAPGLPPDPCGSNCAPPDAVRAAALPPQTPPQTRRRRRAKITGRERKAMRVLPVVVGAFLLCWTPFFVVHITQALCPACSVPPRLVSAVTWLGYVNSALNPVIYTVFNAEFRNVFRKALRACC

[34] = target: 5-hydroxytryptamine receptor 1D (Homo sapiens) (UniProt P28221); conditions: Compound concentration 10.0 uM
[35] = target: D(2) dopamine receptor (Homo sapiens) (UniProt P14416); conditions: Compound concentration 10.0 uM
[36] = target: 5-hydroxytryptamine receptor 3A (Homo sapiens) (UniProt P46098); conditions: Compound concentration 10.0 uM
[37] = target: Histamine H2 receptor (Homo sapiens) (UniProt P25021); conditions: Compound concentration 10.0 uM
[38] = target: Sodium-dependent noradrenaline transporter (Homo sapiens) (UniProt P23975); conditions: Compound concentration 10.0 uM
[39] = target: Beta-3 adrenergic receptor (Homo sapiens) (UniProt P13945); conditions: Compound concentration 10.0 uM
[40] = target: D(3) dopamine receptor (Homo sapiens) (UniProt P35462); conditions: Compound concentration 10.0 uM
[41] = BET mutant TR-FRET assay (BRDT BD2); design: species or system Homo sapiens
[42] = target: 5-hydroxytryptamine receptor 5A (Homo sapiens) (UniProt P47898); conditions: Compound concentration 10.0 uM
[43] = target: Muscarinic acetylcholine receptor M1 (Homo sapiens) (UniProt P11229); conditions: Compound concentration 10.0 uM
[44] = target: Histamine H1 receptor (Homo sapiens) (UniProt P35367); conditions: Compound concentration 10.0 uM
[45] = target: 5-hydroxytryptamine receptor 1E (Homo sapiens) (UniProt P28566); conditions: Compound concentration 10.0 uM

Structure (SMILES): CNC(=O)c1cc(C(=O)N[C@H]2[C@@H]3COC[C@@H]32)cc2c1O[C@H](CF)[C@H]2c1ccccc1 [GSK973]
- inhibition [1]: 13.6%
- inhibition [2]: 8.96%
- inhibition [3]: 9.7%
- inhibition [4]: 14.3%
- inhibition [5]: 2.46%
- inhibition [6]: -9.57%
- inhibition [7]: 17.9%
- inhibition [8]: 2.23%
- inhibition [9]: -5.14%
- inhibition [10]: 28.2%
- inhibition [11]: 9.06%
- inhibition [12]: -0.1%
- inhibition [13]: 6.03%
- inhibition [14]: 3.51%
- inhibition [15]: 8.26%
- inhibition [16]: 1.67%
- inhibition [17]: 13.4%
- inhibition [18]: 27.2%
- inhibition [19]: 16.8%
- inhibition [20]: 2.78%
- inhibition [21]: 9.36%
- inhibition [22]: -5.52%
- inhibition [23]: 1.49%
- inhibition [24]: 28.3%
- inhibition [25]: 12.5%
- inhibition [26]: 11.2%
- inhibition [27]: 1.22%
- inhibition [28]: 28.4%
- inhibition [29]: -4.55%
- inhibition [30]: 30.2%
- inhibition [31]: 4.07%
- inhibition [32]: 22.2%
- inhibition [33]: 81.6%
- inhibition [34]: -5.14%
- inhibition [35]: 60.9%
- inhibition [36]: 20.2%
- inhibition [37]: -3.94%
- inhibition [38]: 0.32%
- inhibition [39]: 15.5%
- inhibition [40]: 81.8%
- pIC50 [41]: 7.4
- inhibition [42]: 12.5%

Structure (SMILES): CNC(=O)c1cc(C(=O)N[C@H]2[C@@H]3COC[C@@H]32)cc2c1O[C@@H](CF)[C@@H]2c1ccccc1
- inhibition [1]: 1.31%
- inhibition [2]: 14.9%
- inhibition [3]: -6.73%
- inhibition [4]: 35.6%
- inhibition [5]: 17.1%
- inhibition [6]: -5.65%
- inhibition [7]: 9.35%
- inhibition [8]: 18%
- inhibition [9]: 4.77%
- inhibition [12]: -8.28%
- inhibition [13]: 6.93%
- inhibition [14]: -7.87%
- inhibition [15]: 7.66%
- inhibition [16]: 13.8%
- inhibition [17]: 11.6%
- inhibition [19]: -1.21%
- inhibition [20]: 6.19%
- inhibition [22]: -7.3%
- inhibition [23]: -0.98%
- inhibition [43]: 12.1%
- inhibition [24]: -7.16%
- inhibition [25]: 22.8%
- inhibition [26]: 12.6%
- inhibition [27]: 41.1%
- inhibition [28]: 10.2%
- inhibition [29]: 7.39%
- inhibition [30]: 74.2%
- inhibition [31]: 14.5%
- inhibition [33]: 17.7%
- inhibition [34]: -8.07%
- inhibition [44]: -1.58%
- inhibition [45]: 0.03%
- inhibition [36]: 10.6%
- inhibition [37]: 4.49%
- inhibition [39]: 31%
- inhibition [40]: 4.11%
